Reference: ChEMBL document CHEMBL4680090 (J Med Chem, 2016)
pIC50, pKi: −log10 of the molar value. Converted amounts (≈) assume the structure as drawn.

Assays:
[1] = target: BDNF/NT-3 growth factors receptor (Homo sapiens, UniProt Q16620)
[2] = human, hepatocytes, 4 h, 1 µM
[3] = target: High affinity nerve growth factor receptor (Homo sapiens, UniProt P04629)
[4] = system: human BCRP; test: in vitro; settings: dog
[5] = target: T1, Voltage-gated inwardly rectifying potassium channel KCNH2 (Homo sapiens, UniProt Q12809)
[6] = physchem; settings: octanol/water, pH 7.4
[7] = in vitro; settings: human, liver microsomes
[8] = system: MDR1 (P-gp); test: in vitro; settings: dog, MDCK-MDR1
[9] = target: T2, Aldehyde oxidase (Homo sapiens, UniProt Q06278); test: Drug metabolism in human liver S9 fractions assessed as AO-mediated oxidation at 2-aminopyrimidyl ring at 10 uM incubated for 60 mins in absence of CYP cofactor NADP by HPLC-UV chromatography; format: ADME, subcellular; settings: s9, 1 h
T2 sequence (Q06278 whole entry): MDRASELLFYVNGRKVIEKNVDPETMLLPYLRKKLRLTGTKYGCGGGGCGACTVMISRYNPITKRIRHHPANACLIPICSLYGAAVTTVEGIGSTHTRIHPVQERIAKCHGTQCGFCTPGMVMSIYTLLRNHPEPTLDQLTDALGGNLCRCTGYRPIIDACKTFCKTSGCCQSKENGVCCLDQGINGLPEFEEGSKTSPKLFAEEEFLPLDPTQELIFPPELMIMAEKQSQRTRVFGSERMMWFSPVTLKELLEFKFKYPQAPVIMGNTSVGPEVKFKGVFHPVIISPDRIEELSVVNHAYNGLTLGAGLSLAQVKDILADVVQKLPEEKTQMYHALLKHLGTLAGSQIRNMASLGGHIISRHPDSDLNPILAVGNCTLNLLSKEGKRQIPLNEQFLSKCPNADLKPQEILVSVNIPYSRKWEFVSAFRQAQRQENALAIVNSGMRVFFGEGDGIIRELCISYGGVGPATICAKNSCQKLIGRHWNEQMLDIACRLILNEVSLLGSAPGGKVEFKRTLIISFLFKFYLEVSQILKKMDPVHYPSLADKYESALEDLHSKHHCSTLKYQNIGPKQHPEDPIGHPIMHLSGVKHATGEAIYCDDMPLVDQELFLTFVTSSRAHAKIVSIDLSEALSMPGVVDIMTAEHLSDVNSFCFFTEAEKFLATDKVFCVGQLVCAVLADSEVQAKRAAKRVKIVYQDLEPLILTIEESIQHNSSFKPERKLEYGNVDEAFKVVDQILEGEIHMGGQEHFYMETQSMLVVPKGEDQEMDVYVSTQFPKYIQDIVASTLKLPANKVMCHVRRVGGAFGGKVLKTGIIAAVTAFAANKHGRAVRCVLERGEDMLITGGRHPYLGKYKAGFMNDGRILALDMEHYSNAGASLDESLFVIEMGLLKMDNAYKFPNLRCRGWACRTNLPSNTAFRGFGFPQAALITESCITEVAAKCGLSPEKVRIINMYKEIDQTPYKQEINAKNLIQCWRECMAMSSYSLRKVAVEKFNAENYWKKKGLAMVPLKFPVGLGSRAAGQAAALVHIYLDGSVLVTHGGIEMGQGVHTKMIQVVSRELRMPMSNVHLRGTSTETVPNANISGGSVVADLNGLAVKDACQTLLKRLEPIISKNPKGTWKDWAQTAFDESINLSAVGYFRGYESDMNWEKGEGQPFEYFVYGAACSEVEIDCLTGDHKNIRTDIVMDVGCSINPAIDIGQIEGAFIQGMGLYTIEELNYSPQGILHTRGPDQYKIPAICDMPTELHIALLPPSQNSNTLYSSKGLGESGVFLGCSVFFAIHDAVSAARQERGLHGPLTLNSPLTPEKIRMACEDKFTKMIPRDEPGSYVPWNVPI

[10] = physchem; settings: buffer, pH 6.5
[11] = target: T2, Aldehyde oxidase; test: Drug metabolism in human liver S9 fractions assessed as AO-mediated oxidation on pyrrolopyrimidine-hinge binding group and the central pyridine substituent at 10 uM incubated for 60 mins in absence of CYP cofactor NADP by HPLC-UV chromatography; format: ADME, subcellular; settings: s9, 1 h
[12] = target: T2, Aldehyde oxidase; test: Drug metabolism in human liver S9 fractions assessed as AO-mediated amide hydrolysis at 10 uM incubated for 60 mins in absence of CYP cofactor NADP by HPLC-UV chromatography; format: ADME, subcellular; settings: s9, 1 h
[13] = in vivo; settings: rat, brain and plasma, po, 100 mg/kg
[14] = target: T2, Aldehyde oxidase; test: Drug metabolism in human liver S9 fractions assessed as AO-mediated oxidation on amino-pyrrolopyrimidine hinge binding group and central pyridine substituent at 10 uM incubated for 60 mins in absence of CYP cofactor NADP by HPLC-UV chromatography; format: ADME, subcellular; settings: s9, 1 h
[15] = system: human BCRP; test: in vitro; settings: dog; remark: listed apart in the source
[16] = target: T2, Aldehyde oxidase; test: Drug metabolism in human liver S9 fractions assessed as AO-mediated mono-oxidised metabolite formation at 10 uM incubated for 60 mins in absence of CYP cofactor NADP by HPLC-UV chromatography; format: ADME, subcellular; settings: s9, 1 h
[17] = target: T2, Aldehyde oxidase; test: Drug metabolism in human liver S9 fractions assessed as AO-mediated mono-oxidised metabolite formation at 10 uM incubated for 60 mins in absence of CYP cofactor NADP and in presence of 50 uM XO inhibitor allopurinol by HPLC-UV chromatography; format: ADME, subcellular; settings: s9, 1 h
[18] = target: T2, Aldehyde oxidase; test: Drug metabolism in human liver S9 fractions assessed as AO-mediated mono-oxidised metabolite formation at 10 uM incubated for 60 mins in absence of CYP cofactor NADP and in presence of 50 uM AO inhibitor menadione by HPLC-UV chromatography; format: ADME, subcellular; settings: s9, 1 h
[19] = Toxicity in rat assessed as drug tolerability at 400 mg/kg/day during 7 day toxicological study; format: organism-based; settings: in vivo, 168 h
[20] = Oral bioavailability in rat at 3 mg/kg; format: ADME, organism-based; settings: in vivo
[21] = Clearance in rat at 1 mg/kg, iv relative to hepatic blood flow; format: ADME, organism-based; settings: in vivo
[22] = target: T1, Voltage-gated inwardly rectifying potassium channel KCNH2; remark: listed apart in the source
[23] = Volume of distribution in rat at 1 mg/kg, iv; format: ADME, organism-based; settings: in vivo, read-out: Vdss
[24] = Clearance in rat at 1 mg/kg, iv; format: ADME, organism-based; settings: in vivo
[25] = target: T2, Aldehyde oxidase; test: Drug metabolism in human liver S9 fractions assessed as AO-mediated oxidation on central pyridine substituent at 10 uM incubated for 60 mins in absence of CYP cofactor NADP by HPLC-UV chromatography; format: ADME, subcellular; settings: s9, 1 h
[26] = target: T2, Aldehyde oxidase; test: Drug metabolism in human liver S9 fractions assessed as AO-mediated oxidation on pyrrolopyrimidine-hinge binding group at 10 uM incubated for 60 mins in absence of CYP cofactor NADP by HPLC-UV chromatography; format: ADME, subcellular; settings: s9, 1 h
[27] = Half life in rat at 1 mg/kg, iv; format: ADME, organism-based; settings: in vivo
[28] = target: T2, Aldehyde oxidase; test: Drug metabolism in human liver S9 fractions assessed as AO-mediated oxidation at fluoro-pyrrolopyridine motif at 10 uM incubated for 60 mins in absence of CYP cofactor NADP by HPLC-UV chromatography; format: ADME, subcellular; settings: s9, 1 h

Chain of High affinity nerve growth factor receptor (P04629 whole entry): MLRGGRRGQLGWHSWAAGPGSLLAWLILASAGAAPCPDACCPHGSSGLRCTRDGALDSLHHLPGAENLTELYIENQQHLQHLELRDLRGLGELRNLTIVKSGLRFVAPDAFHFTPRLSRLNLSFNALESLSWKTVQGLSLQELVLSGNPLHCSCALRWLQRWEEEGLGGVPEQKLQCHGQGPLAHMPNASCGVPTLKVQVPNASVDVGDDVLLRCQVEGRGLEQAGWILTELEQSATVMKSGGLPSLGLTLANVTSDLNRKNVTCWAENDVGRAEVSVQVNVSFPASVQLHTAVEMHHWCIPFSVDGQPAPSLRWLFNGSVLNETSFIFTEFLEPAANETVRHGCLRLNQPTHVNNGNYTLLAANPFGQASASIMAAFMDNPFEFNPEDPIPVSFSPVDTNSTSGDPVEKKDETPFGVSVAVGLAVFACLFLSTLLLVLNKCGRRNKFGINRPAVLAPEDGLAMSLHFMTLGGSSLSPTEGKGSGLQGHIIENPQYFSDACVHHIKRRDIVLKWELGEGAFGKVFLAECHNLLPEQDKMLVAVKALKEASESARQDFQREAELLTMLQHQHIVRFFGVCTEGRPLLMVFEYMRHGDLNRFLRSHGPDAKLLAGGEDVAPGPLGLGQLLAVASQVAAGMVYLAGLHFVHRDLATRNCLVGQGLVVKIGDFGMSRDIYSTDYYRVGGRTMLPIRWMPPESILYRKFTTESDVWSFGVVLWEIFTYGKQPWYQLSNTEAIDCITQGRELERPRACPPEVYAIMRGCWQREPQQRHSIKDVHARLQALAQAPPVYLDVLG
T1 sequence (Q12809 whole entry): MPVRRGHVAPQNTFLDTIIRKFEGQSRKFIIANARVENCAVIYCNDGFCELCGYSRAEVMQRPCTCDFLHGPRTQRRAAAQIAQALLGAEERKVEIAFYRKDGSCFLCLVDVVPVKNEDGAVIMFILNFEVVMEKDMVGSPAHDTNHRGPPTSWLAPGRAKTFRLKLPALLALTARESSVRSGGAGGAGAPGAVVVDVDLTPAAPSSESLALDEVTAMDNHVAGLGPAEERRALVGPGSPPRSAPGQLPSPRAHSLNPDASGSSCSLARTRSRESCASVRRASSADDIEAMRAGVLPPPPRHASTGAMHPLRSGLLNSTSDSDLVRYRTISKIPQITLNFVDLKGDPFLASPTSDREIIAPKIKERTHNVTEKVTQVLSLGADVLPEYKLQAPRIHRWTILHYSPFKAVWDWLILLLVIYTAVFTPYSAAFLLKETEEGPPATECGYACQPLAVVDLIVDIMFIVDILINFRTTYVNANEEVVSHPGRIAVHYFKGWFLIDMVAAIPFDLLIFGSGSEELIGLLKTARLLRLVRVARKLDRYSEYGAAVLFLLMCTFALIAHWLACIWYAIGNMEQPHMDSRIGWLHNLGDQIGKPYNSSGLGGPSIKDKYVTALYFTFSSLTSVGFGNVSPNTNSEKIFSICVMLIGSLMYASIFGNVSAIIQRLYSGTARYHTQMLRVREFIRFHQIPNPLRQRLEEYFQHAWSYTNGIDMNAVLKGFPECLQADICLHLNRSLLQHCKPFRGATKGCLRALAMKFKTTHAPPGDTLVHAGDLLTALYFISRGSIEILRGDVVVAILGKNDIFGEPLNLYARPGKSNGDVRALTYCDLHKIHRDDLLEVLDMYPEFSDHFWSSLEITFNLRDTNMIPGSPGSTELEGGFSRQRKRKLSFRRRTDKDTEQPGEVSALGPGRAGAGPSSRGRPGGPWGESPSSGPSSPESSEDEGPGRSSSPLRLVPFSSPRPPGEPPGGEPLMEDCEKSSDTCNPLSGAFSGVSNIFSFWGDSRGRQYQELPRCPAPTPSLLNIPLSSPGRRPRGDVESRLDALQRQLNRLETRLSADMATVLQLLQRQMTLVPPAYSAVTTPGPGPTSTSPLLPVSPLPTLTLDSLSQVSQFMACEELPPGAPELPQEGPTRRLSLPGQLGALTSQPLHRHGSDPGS
Chain of BDNF/NT-3 growth factors receptor (Q16620 whole entry): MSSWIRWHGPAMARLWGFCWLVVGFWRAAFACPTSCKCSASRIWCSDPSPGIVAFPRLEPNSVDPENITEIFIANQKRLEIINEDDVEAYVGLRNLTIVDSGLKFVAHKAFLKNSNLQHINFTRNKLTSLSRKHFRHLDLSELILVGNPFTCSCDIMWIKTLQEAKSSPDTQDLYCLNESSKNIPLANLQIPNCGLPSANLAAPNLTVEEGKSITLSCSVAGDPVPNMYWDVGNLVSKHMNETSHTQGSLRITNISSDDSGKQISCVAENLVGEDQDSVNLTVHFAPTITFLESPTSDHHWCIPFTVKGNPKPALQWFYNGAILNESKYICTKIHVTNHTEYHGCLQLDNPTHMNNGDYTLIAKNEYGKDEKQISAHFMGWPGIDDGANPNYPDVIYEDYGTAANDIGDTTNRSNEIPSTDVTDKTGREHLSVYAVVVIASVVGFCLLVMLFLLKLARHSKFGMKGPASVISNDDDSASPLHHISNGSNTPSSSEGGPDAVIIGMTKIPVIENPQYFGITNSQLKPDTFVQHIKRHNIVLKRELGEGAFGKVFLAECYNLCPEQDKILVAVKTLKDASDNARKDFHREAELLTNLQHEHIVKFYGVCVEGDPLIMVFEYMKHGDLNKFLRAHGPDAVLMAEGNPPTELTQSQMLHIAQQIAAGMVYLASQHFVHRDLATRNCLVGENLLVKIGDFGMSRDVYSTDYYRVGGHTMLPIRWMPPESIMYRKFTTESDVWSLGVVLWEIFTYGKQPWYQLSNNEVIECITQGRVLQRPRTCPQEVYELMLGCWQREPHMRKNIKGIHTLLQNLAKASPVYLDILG

Row | SMILES | pIC50 [1] | CLH(app) [2] | pIC50 [3] | Papp A→B [4] | logD [6] | microsomal CLint at 1 h, 1 µM [7] | efflux ratio [8] | solubility [10] | pKi [5] | other results
1 | CC(C)n1cc(C(=O)c2cncc(NC(=O)Cn3ccc(C4CC4)n3)c2)c2cnccc21 | 8.30 | 23 µL/min | 7.77 | 19.8 ×10⁻⁶ cm/s | 2.7 | 35 µL/min/mg | 12.5 |  | 5.85 | 
2 | CC(C)n1cc(C(=O)c2cncc(NC(=O)Cn3ccc(C4CC4)n3)c2)c2cncc(F)c21 | 8.15 |  | 7.48 | 15.4 ×10⁻⁶ cm/s | 3.5 | 37 µL/min/mg | 3.8 |  | 4.95 | 
3 | CC(C)n1cc(C(=O)c2cncc(NC(=O)Cc3ccc(C#N)cc3)c2)c2c(N)ncnc21 | 8.10 | 7 µL/min | 7.14 | 12.1 ×10⁻⁶ cm/s | 2.5 | 22 µL/min/mg | 27 | 4.4 µM (≈ 1.93 µg/mL) | 5.01 | Drug metabolism [11]: Metabolite_Detected; Drug metabolism [12]: Metabolite_Detected; Kp uu at 3 h [13]: 0.013; Drug metabolism [14]: Metabolite_Detected
4 | CC(C)n1cc(C(=O)c2cncc(NC(=O)Cn3ccc(C4CC4)n3)c2)c2cncnc21 | 8.40 | 12 µL/min | 7.74 | 18.4 ×10⁻⁶ cm/s | 2.5 | 25 µL/min/mg | 5.8 |  | 4.92 | efflux ratio [15]: 38
5 | C[C@H](CO)n1cc(C(=O)c2ccnc(NC(=O)Cc3ccc(C#N)cc3)c2)c2cncnc21 |  |  |  |  |  |  |  |  |  | Drug metabolism [16]: Metabolite_Detected; Drug metabolism [17]: Metabolite_Detected; Drug metabolism [18]: Metabolite_Notdetected
6 | CC(C)n1cc(C(=O)c2cc(NC(=O)Cc3ccc(Cl)cc3)ccn2)c2cncc(F)c21 |  |  |  |  |  |  |  |  |  | Drug metabolism [28]: Metabolite_Notdetected
7 | CC(C)(CO)n1cc(C(=O)c2cncc(NC(=O)Cc3ccc(Cl)cc3)c2)c2cnc(N)nc21 |  | 11.2 µL/min |  | 6.4 ×10⁻⁶ cm/s | 3.7 | < 8 µL/min/mg |  | 29 µM (≈ 13.9 µg/mL) | < 5.37 | 

Second part, led by results:

Row | pIC50 [1] | CLH(app) [2] | pIC50 [3] | Papp A→B [4] | logD [6] | microsomal CLint at 1 h, 1 µM [7] | efflux ratio [8] | solubility [10] | SMILES | pKi [5] | other results
8 | 8.70 | 14 µL/min | 8.22 | 5.2 ×10⁻⁶ cm/s | 4.2 | < 8 µL/min/mg |  | 12 µM (≈ 5.39 µg/mL) | CC(C)n1cc(C(=O)c2cncc(NC(=O)Cc3ccc(Cl)cc3)c2)c2cnc(N)nc21 | 4.77 | Drug metabolism [9]: Metabolite_Notdetected
9 | 8.40 | 37 µL/min | 7.92 | 9.9 ×10⁻⁶ cm/s | 3.7 | 22 µL/min/mg |  | 17.5 µM (≈ 7.59 µg/mL) | CC(C)n1cc(C(=O)c2cncc(NC(=O)Cc3ccc(Cl)cc3)c2)c2cncnc21 | 5.28 | 
10 | 8.30 | 24 µL/min | 8.10 | 15.8 ×10⁻⁶ cm/s | 2.5 | 8 µL/min/mg |  | 30 µM (≈ 13.3 µg/mL) | CC(C)n1cc(C(=O)c2cncc(NC(=O)Cn3ccc(C4CC4)n3)c2)c2cnc(N)nc21 | 4.41 | Drug metabolism [9]: Metabolite_Notdetected
11 |  |  | 8.52 | 24.1 ×10⁻⁶ cm/s | 4.3 | 23 µL/min/mg | 10.9 | 13.6 µM (≈ 6.13 µg/mL) | CC(C)n1cc(C(=O)c2ccnc(NC(=O)Cc3ccc(F)cc3F)c2)c2c(N)ncnc21 | 5.08 | efflux ratio [15]: 10.9
12 | 8.15 | 12 µL/min | 7.89 | 11.3 ×10⁻⁶ cm/s | 3 | < 8 µL/min/mg |  | 7.5 µM (≈ 3.42 µg/mL) | CC(C)n1cc(C(=O)c2cncc(NC(=O)Cn3ccc(C(F)(F)F)n3)c2)c2cnccc21 | 5.85 | Activity [19]: Non-Toxic; bioavailability [20]: 16%; CL [21]: 70%; pIC50 [22]: 5.80; Vd [23]: 1.5 L/kg; clearance [24]: 50 mL/min/kg; Drug metabolism [25]: Metabolite_Detected; Drug metabolism [26]: Metabolite_Notdetected; Kp uu at 3 h [13]: 0.0083; half-life [27]: 2.3 h
